Experimental findings from patent US8187822B2, “Methods to identify modulators” (Givaudan S.A., priority 2007, dated 2012) are described below.

Assay [1] has as its system bitter-sensitive panelists. Nature of the assay: Sensory evaluation of bitter blocking in sucralose solution (forced choice). Format: in vivo, human. Conditions: for perceived bitterness of sucralose, in words: 13 ppm in 3 mM sucralose solution. How it is done: The bitter blocking capability of test cpd A (13 ppm) in sucralose (3 mM) solution was evaluated. Twenty ml of each solution (sucralose or sucralose with test cpd A) was presented in random order to 15 bitter-sensitive panelists. In two replications, panelists were asked to select the solution they perceived as more bitter. A beta-binomial analysis was calculated from the forced-choice data to correct for overdispersion. Because panelists evaluated bitterness over 2 replications, the data was subjected to a beta-binomial d′ analysis to determine whether over-dispersion occurred. Not accounting for over-dispersion has the potential to underestimate the significance level at which a test is conducted and therefore lead to false-positive results. The analysis refuted overdispersion (gamma=0.00; p=0.109) and no adjustments were necessary.

For assay [2], the target named is T1, TAS2R16 (Homo sapiens, UniProt Q9NYV7).
T1 construct: The full length gene of human TAS2R44 was amplified by polymerase chain reaction (PCR) using gene-specific primers that span the entire coding region; RSS tag (first 45 amino acids of rat somatostatin receptor subtype 3) (N); expressed in transfected cells; host or cells: HEK293T cells expressing Gα16-gustducin44
T1 sequence (Q9NYV7 1-291): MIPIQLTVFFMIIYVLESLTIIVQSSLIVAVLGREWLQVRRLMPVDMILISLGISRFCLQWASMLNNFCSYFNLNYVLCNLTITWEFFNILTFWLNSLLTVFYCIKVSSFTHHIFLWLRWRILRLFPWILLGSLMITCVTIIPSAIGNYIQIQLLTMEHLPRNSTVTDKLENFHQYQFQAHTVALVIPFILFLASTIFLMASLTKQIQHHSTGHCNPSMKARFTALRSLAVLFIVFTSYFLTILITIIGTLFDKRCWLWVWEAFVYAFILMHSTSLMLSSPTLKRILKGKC
Nature of the assay: Fluo-4 calcium assay, cells expressing TAS2R16 (control of antagonist specificity). Format: cell-based. Conditions: for P-β-G + test cpd A ΔF/F0: 25 μM test cpd A. The procedure: At day 0, the HEK293T cell line expressing Gα16-gustducin44 and a TAS2R bitter taste receptor formed as described in examples 2b or 2c was seeded in antibiotic-free growth medium (standard DMEM with 10% (v/v) heat-inactivated fetal bovine serum, 2 mM L-glutamine[…]) into black wall/clear bottom 96-well plates, coated with poly(ethylenimine) (0.005% v/v) at a concentration of 15,000 cells per well and incubated for 48 hours in humidified atmosphere (37° C., 5% CO2).
At the time of the assay, the growth medium was discarded and the cells were in humidified atmosphere (37° C., 5% CO2) for 1 hour with 50 μl of loading buffer consisting of 1.5 μM Fluo-4 AM and […] probenicid (Sigma-Aldrich, St. Louis, Mo., US) in DMEM.
Afterwards, the 96-well plate was washed 5 times with 100 μl of assay buffer (130 mM NaCl, 5 mM KCl, 10 mM HEPES, 2 mM CaCl2, and 5 mM dextrose, pH 7.4) per well, using an automated plate washer (BioTek). The plate was further incubated for 30 minutes at room temperature in the dark to allow for complete de-esterification of the Fluo-4. Afterwards the plate was washed 5 times with 100 μl of assay buffer per well, and reconstituted with 100 μl of assay buffer per well.
For assay reading, the plate was placed in a Fluorometric Imaging Plate Reader (FLIPR) (FLIPR-TETRA™, Molecular Devices, Sunnyvale, Calif., US), and receptor activation was initiated by addition of 100 μl of a twofold concentrated agonist stock solution (to give the desired agonist end concentration when added to the 100 microliter assay buffer volume), which was prepared in assay buffer.
Fluorescence was continuously monitored for 20 seconds to give a signal baseline (averaged to give F0) prior to agonist addition and for 120 seconds after agonist addition. The change in signal divided by F0 gives ΔF/F0 indicated in the table, with ΔF being the maximum signal occurring within the 120 seconds minus the minimum signal (occurring within the 120 seconds after agonist addition.
All data was collected from at least two independent experiments each carried out in triplicate.
A concentration-response analysis was performed and EC50 values were calculated by nonlinear regression using the function f(x)=(a−d)/(1+(x/C)^nh)+d; with a=minimum signal, d=maximum signal, nh=hill coefficient, C=EC50, and x=agonist concentration. EC50 is the molar concentration of an agonist which produces 50% of the maximum possible effective response for that agonist.
The obtained calcium signals were corrected for the response of cells expressing only the G Protein α subunit (Gα16-gustducin44) and normalized to the fluorescence of cells prior to the stimulus using ΔF/F0 (Fmax−Fmin/F0).
All cells were HEK293T cells stably expressing Gα16-gustducin44, or expressing Gα16-gustducin44 and a TAS2R receptor (TAS2R44, TAS2R16).
The method was carried out as described in example 3 subject to the following modifications: The samples were tested with and without test compound A (test cpd A) and the signals were compared. The test compound was dissolved in dimethylsulfoxide (DMSO), and a negative control with equivalent DMSO concentration (0.02%) was performed accordingly to exclude a potential inhibitory effect of the solvent.
As a control of antagonist specificity, the response of an unrelated bitter taste receptor (TAS2R16) to its agonist phenyl-β-glucopyranosides is also detected (see results in table 8 herein below).

In the case of `CC1=CCC(C/C=C/C(=O)O)C1(C)C` (centres unmarked) [test cpd A, (E)-4-(2,2,3-trimethylcyclopent-3-enyl)but-2-enoic acid], the “perceived bitterness of sucralose, in words” value in assay [1] was “reduced the perceived bitterness”; in assay [1] (listed as (E)-4-(2,2,3-trimethylcyclopent-3-enyl)but-2-enoic acid), “significantly reduce the bitter aftertaste of sucralose”. In addition, the “evaluations selecting the solution with test compound as less bitter than 3 mM sucralose solution” value in assay [1] (13 ppm in 3 mM sucralose, 15 panelists, 2 replications, p<0.05) is given as 22 of 30. Further, the “d′” value in assay [1] (13 ppm in 3 mM sucralose, forced choice) is 0.88±0.12. The “P-β-G + test cpd A ΔF/F0” value in assay [2] (P-β-G 0.0391 mM) is given as −0.013; in assay [2] (P-β-G 0.0781 mM) it was 0.108; in assay [2] (P-β-G 0.1563 mM), 0.702; in assay [2] (P-β-G 0.3125 mM) it was 1.548; in assay [2] (P-β-G 0.6250 mM) it was 2.139; in assay [2] (P-β-G 1.2500 mM), 2.367. Further, the “P-β-G + test cpd A ΔF/F0” value in assay [2] (P-β-G 2.5000 mM) came out at 2.480; in assay [2] (P-β-G 5.0000 mM), 2.646; in assay [2] (P-β-G 10.0000 mM), 2.830. In addition, the “effect on the response of TAS2R16 to phenyl-β-glucopyranoside, in words” value in assay [2] (test compound at 25 μM) is “does not block the response”.
